Laboratory results: US10112922B2, “Inhibitor of bruton's tyrosine kinase” (Centaurus BioPharma Co., Ltd., priority 2014, dated 2018)
“Also recorded” adds a separate entry of the source. Read-outs that look alike come from different tables or passages of the source.

How the values were obtained:
Btk kinase = Btk kinase (Homo sapiens (Human), UniProt Q06187); assay: Btk kinase enzymatic activity assay (HTRF); type: biochemical
Experimental: The half inhibition concentrations (IC50 values) of the compounds disclosed herein on Btk were determined at both enzymatic level and cellular level: the ability of the compounds to inhibit the activity of Btk kinase was determined in an enzymtic activity assay, and the inhibitory effect of the compounds on BCR-induced calcium flux in cells was determined in a cellular function assay.
(§1) The compounds were gradiently diluted 3 folds starting from 1 mM with 100% DMSO (totally 11 concentrations). 4 μL of each sample with a different concentration was added into 96 μL of reaction buffer (50 mM HEPES, pH 7.4, 10 mM MgCl2, 1 mM EGTA, 0.01% Tween-20, 0.005% BAS, 2 mM DTT). […] The mixture was centrifuged to mix well, followed by adding 2.5 μL of a mixture of ATP (final concentration designated as Km) and TK petide (HTRF® KinEASE™-TK, Cisbio) to initiate the reaction (total reaction volume being 10 μL). […] The enzyme activity for each compound was determined at 11 concentrations, and IC50 values were obtained by GraFit Software 6.0 (Erithacus Software).

ITK kinase = ITK kinase (Homo sapiens (Human), UniProt Q08881); assay: ITK kinase enzymatic assay (same HTRF method as BTK); type: biochemical
Sequence of ITK kinase (Q08881 whole entry): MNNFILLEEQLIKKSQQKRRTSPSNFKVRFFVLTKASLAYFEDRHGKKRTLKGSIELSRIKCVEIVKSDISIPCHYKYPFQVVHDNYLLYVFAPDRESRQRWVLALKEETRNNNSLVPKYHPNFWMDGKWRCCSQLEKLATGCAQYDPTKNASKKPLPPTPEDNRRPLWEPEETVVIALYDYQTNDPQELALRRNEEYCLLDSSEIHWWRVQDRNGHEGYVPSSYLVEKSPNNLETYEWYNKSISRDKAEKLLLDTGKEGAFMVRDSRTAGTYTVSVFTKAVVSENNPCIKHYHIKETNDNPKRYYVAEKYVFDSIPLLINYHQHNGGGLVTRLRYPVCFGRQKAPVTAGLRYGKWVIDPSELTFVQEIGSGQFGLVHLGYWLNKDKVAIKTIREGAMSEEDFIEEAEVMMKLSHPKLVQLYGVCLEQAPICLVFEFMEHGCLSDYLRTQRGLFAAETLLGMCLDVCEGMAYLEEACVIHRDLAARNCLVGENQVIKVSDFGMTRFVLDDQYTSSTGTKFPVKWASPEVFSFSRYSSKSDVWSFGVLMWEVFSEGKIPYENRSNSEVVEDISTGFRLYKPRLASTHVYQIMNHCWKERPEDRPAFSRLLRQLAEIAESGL
Experimental: as §1
In vitro activity in inhibiting ITK kinase was determined similar to that in respect of BTK kinase.

OCI-LY-10 cells = assay: Efficacy in subcutaneously xenografted tumor model in mice; type: in vivo, CB-17 SCID mice
Experimental: SPF grade female CB-17 SCID mice (4-5 week) were used. 0.1 ml of OCI-LY-10 cells suspended in serum-free medium (containing 5×10^6 cells, 30% Matrigel) were injected subcutaneously in both the left and the right flanks of mice. Mice were grouped and numbered when the average tumor volumes were more than 100 mm3, and the body weights and tumor volumes were determined. The mice were randomly grouped according to tumor volumes, and appropriate adjustments were made so that the average body weight in each group is on the same level. Animals were dosed orally on the same day when they were grouped, and body weights and tumor volumes were measured twice a week. Relative tumor growth (T/C) and Tumor growth inhibition (TGI) were the major test indeces.
The equation for calculating the tumor volume is V=0.5×a×b^2, wherein v is the tumor volume, a and b are the length and the width of the tumor, respectively. The relative tumor volume (RTV) was calculated according to the tumor volume with the equation RTV=Vt/V0, wherein V0 was the tumor volume at the time when the animals were grouped, and Vt was the tumor volume at indicated time points. The equation for calculating the relative tumor proliferation rate was T/C (%)=TRTV/CRTV*100%. (TRTV was the RTV of treated group, and CRTV was the RTV of control group).
The equation for calculating the tumor growth inhibition rate was TGI (%)=(1−(tumor volume of the treated group−tumor volume of the treated group at the time when the animals were grouped)/(tumor volume of the control group−tumor volume of the control group at the time when the animals were grouped))*100%.

[1] = Toxicity test in mice (7-day oral administration); type: in vivo, CD-1 (ICR) mice; details: for difference in body weight change from control group / toxicity: 1000 mg/kg oral once a day for 7 days; for Average body weight of mice / Changes (%) in mice body weight in treated group over control group: 1000 mg/kg oral once a day
Source text: Body weights and conditions of mice were monitored every day, during which all mice were not fasting.

[2] = system: type II collagen-induced arthritis; assay: Type II collagen-induced arthritis mice model; type: in vivo, DBA/1 mice
Experimental: The mice were randomly grouped according to their arthritis scores when the onset of arthritis was observed after 4 weeks. Compounds were then administered continuously for 4 weeks, during which the arthritis scores were evaluated for each mouse and the body weights thereof were measure every other day. The criteria for evaluating the arthritis score were as follows:
1=erythema and mild swelling at ankle joint;
2=erythema and mild swelling from ankle joint to phalangeal joint or metacarpal joint;
3=erythema and moderate swelling from ankle joint to phalangeal joint or metacarpal joint;
4=erythema and severe swelling or ankylosis on whole foot including from ankle joint to phalangeal joint.
Each paw was scored according to the above criteria, and the highest score was 16.

Sequence of Btk kinase (Q06187 whole entry): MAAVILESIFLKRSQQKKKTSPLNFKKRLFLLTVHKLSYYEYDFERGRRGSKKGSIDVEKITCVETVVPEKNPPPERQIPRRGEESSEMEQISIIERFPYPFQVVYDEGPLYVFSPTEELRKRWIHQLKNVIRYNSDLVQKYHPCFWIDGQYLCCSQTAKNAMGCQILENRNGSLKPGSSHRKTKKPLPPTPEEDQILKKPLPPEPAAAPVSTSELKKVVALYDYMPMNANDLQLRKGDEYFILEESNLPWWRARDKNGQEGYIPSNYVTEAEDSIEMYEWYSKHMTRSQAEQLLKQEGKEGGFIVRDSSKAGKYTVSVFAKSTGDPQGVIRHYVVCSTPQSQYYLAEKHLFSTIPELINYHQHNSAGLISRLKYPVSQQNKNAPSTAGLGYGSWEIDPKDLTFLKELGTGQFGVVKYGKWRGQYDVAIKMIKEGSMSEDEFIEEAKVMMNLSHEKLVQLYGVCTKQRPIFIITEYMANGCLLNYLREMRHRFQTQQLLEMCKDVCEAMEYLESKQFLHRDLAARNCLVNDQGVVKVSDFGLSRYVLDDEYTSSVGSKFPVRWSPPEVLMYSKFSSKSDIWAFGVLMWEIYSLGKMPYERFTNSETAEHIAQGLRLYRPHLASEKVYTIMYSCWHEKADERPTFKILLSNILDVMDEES

Compound	IC50 (Btk kinase; Table 1, read-out: Btk IC50)	IC50 (ITK kinase; Table 1, read-out: Itk IC50)	TGI (%) Day 3 (OCI-LY-10 cells; 100 mg/kg PO QD)	TGI (%) Day 8 (OCI-LY-10 cells; 100 mg/kg PO QD)	TGI (%) Day 11 (OCI-LY-10 cells; 100 mg/kg PO QD)	difference in body weight change from control group [1]	toxicity [1]	Average body weight of mice ([1]; Day 1)	Changes (%) in mice body weight in treated group over control group ([1]; Day 1)	Average body weight of mice ([1]; Day 2)	Changes (%) in mice body weight in treated group over control group ([1]; Day 2)	Average body weight of mice ([1]; Day 3)	Changes (%) in mice body weight in treated group over control group ([1]; Day 3)	Average body weight of mice ([1]; Day 4)	Changes (%) in mice body weight in treated group over control group ([1]; Day 4)	Average body weight of mice ([1]; Day 5)	Changes (%) in mice body weight in treated group over control group ([1]; Day 5)	Average body weight of mice ([1]; Day 6)	Changes (%) in mice body weight in treated group over control group ([1]; Day 6)	Average body weight of mice ([1]; Day 7)	also measured
C/C=C/C(=O)N1CC[C@@H](n2nc(-c3ccc(Oc4ccccc4)cc3)c(C(N)=O)c2N)C1 [Example 7, (R,E)-5-amino-1-(1-(but-2-enoyl)pyrrolidin-3-yl)-3-(4-phenoxyphenyl)-1H-pyrazole-4-carboxamide]	< 100 nM	> 1000 nM	33.27%	19.00%	11.28%	–	–	–	–	–	–	–	–	–	–	–	–	–	–	–	–
COC/C=C/C(=O)N1CC[C@@H](n2nc(-c3ccc(Oc4ccccc4)cc3)c(C(N)=O)c2N)C1 [Example 9, (R,E)-5-amino-1-(1-(4-methoxybut-2-enoyl)pyrrolidin-3-yl)-3-(4-phenoxyphenyl)-1H-pyrazole-4-carboxamide]	< 100 nM	> 1000 nM	45.79%	39.37%	43.05%	< 2%	no toxicity	24.4 g	100.0%	24.6 g	100.0%	25.1 g	100.3%	25.6 g	101.1%	26.4 g	101.8%	26.9 g	101.7%	27.2 g	IC50 (Btk kinase; Table 5, kinase selectivity test, read-out: IC50 (nM) BTK): 1.9 nM; selectivity on BTK vs ITK (Btk kinase; calculated from IC50 values): more than 1000 folds; IC50 (ITK kinase; Table 5, kinase selectivity test, read-out: IC50 (nM) ITK): > 1000 nM; Changes (%) in mice body weight in treated group over control group ([1]; Day 7): 101.7%; therapeutic effect on arthritis at very low dosage ([2]; 0.3 mg/kg): good therapeutic effect; also recorded: comparable to that of 3 mg/kg of PCI-32765; arthritis (arthritis score) after administration ([2]; administered continuously for 4 weeks, FIG. 1): significantly alleviated
CC(=O)OC/C=C/C(=O)N1CC[C@@H](n2nc(-c3ccc(Oc4ccccc4)cc3)c(C(N)=O)c2N)C1 [Example 13, (R,E)-4-(3-(5-amino-4-carbamoyl-3-(4-phenoxyphenyl)-1H-pyrazol-1-yl)pyrrolidin-1-yl)-4-oxobut-2-en-1-yl acetate]	< 100 nM	> 1000 nM	–	–	–	–	–	–	–	–	–	–	–	–	–	–	–	–	–	–	–
NC(=O)c1c(-c2ccc(Oc3ccccc3)cc2)nn([C@@H]2CCN(C(=O)/C=C/CN3CCCCC3)C2)c1N [Example 5, (R,E)-5-amino-3-(4-phenoxyphenyl)-1-(1-(4-(piperidin-1-yl)but-2-enoyl)pyrrolidin-3-yl)-1H-pyrazole-4-carboxamide]	< 100 nM	> 1000 nM	–	–	–	–	–	–	–	–	–	–	–	–	–	–	–	–	–	–	–
C=CS(=O)(=O)N1CCC[C@@H](n2nc(-c3ccc(Oc4ccccc4)cc3)c(C(N)=O)c2N)C1 [Example 1, (R)-5-amino-3-(4-phenoxyphenyl)-1-(1-(vinylsulfonyl)piperidin-3-yl)-1H-pyrazole-4-carboxamide]	< 100 nM	< 100 nM	–	–	–	–	–	–	–	–	–	–	–	–	–	–	–	–	–	–	–
CC#CC(=O)N1CC[C@@H](n2nc(-c3ccc(Oc4ccccc4)cc3)c(C(N)=O)c2N)C1 [Example 16, (R)-5-amino-1-(1-(but-2-ynoyl)pyrrolidin-3-yl)-3-(4-phenoxyphenyl)-1H-pyrazole-4-carboxamide]	< 100 nM	> 1000 nM	14.97%	19.53%	29.98%	< 2%	no toxicity	24.8 g	100.0%	25.3 g	101.1%	25.7 g	100.8%	25.9 g	100.6%	26.3 g	99.8%	26.5 g	98.5%	26.9 g	TGI (%) Day 3 (OCI-LY-10 cells; 50 mg/kg PO BID): 35.97%; TGI (%) Day 8 (OCI-LY-10 cells; 50 mg/kg PO BID): 32.25%; TGI (%) Day 11 (OCI-LY-10 cells; 50 mg/kg PO BID): 44.47%; Changes (%) in mice body weight in treated group over control group ([1]; Day 7): 98.9%
